Molecular target: human BACE1 (Homo sapiens, UniProt P56817)
Assay: BACE1 fluorescent kinetic assay (cleavage of peptide substrate WABC-6)
Format: biochemical
Conditions: Activity Table, Examples 1-108; 10 nM enzyme, 25 μM substrate WABC-6, pH 4.5, room temperature
Method: Evaluation of BACE1 Binding Affinity of Test Compounds
Fluorescent Kinetic Assays
Dilution and mixing steps: total reaction volume: 100 μL
100 μM substrate dilution in 1×PBS was prepared, and
Fluorescence Readings: Readings at λex 320 nm and λem 420 nm are taken every 40 sec for 30 min at room temperature and the linear slope for substrate cleavage rate (vi) determined.

Sequence of human BACE1 (P56817 46-501): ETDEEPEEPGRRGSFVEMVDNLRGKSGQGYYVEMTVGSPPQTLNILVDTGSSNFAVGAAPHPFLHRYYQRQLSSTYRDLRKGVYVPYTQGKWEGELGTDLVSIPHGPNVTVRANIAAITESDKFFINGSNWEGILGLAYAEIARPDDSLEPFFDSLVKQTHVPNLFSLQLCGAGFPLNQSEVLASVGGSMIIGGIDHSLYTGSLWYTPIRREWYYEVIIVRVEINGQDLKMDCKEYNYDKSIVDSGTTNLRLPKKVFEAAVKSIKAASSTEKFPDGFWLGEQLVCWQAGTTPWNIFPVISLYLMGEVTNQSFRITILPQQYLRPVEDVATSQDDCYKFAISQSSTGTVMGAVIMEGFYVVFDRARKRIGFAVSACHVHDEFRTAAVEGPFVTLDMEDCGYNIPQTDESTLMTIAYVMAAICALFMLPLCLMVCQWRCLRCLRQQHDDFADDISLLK

IC50 | SMILES
< 100 nM | C=CCCOc1cccc(C2(c3ccc(OC(F)F)cc3)N=C(N)N(C)C2=O)c1 (centres unmarked) [Example 8, 2-amino-5-[3-(but-3-en-1-yloxy)phenyl]-5-[4-(difluoromethoxy)-phenyl]-3-methyl-3,5-dihydro-4H-imidazol-4-one]
< 100 nM | C=CCCOc1cc(C2(c3ccc(OC(F)F)cc3)N=C(N)N(C)C2=O)ccc1F (centres unmarked) [Example 9, 2-amino-5-[3-(but-3-en-1-yloxy)-4-fluorophenyl]-5-[4-(difluoromethoxy)phenyl]-3-methyl-3,5-dihydro-4H-imidazol-4-one]
< 100 nM | C=CCCOc1cccc([C@@]2(c3ccc(OC(F)F)cc3)N=C(N)N(C)C2=O)c1 [Example 10A, (5R)-2-amino-5-[3-(but-3-en-1-yloxy)phenyl]-5-[4-(difluoromethoxy)phenyl]-3-methyl-3,5-dihydro-4H-imidazol-4-one]
110 to 1000 nM | C=CCCOc1cccc([C@]2(c3ccc(OC(F)F)cc3)N=C(N)N(C)C2=O)c1 [Example 10B, (5S)-2-amino-5-[3-(but-3-en-1-yloxy)phenyl]-5-[4-(difluoromethoxy)phenyl]-3-methyl-3,5-dihydro-4H-imidazol-4-one]
< 100 nM | C=CCCCOc1cccc([C@@]2(c3ccc(OC(F)F)cc3)N=C(N)N(C)C2=O)c1 [Example 10C, (R)-2-amino-4-(4-(difluoromethoxy)phenyl)-1-methyl-4-(3-(pent-4-enyloxy)phenyl)-1H-imidazol-5(4H)-one]
< 100 nM | C=CC[C@@H](C)Oc1cccc([C@@]2(c3ccc(OC(F)F)cc3)N=C(N)N(C)C2=O)c1 [Example 10D, (R)-2-amino-4-(4-(difluoromethoxy)phenyl)-1-methyl-4-(3-((R)-pent-4-en-2-yloxy)phenyl)-1H-imidazol-5(4H)-one]
110 to 1000 nM | C=CC[C@H](C)Oc1cccc([C@@]2(c3ccc(OC(F)F)cc3)N=C(N)N(C)C2=O)c1 [Example 10E, (R)-2-amino-4-(4-(difluoromethoxy)phenyl)-1-methyl-4-(3-((S)-pent-4-en-2-yloxy)phenyl)-1H-imidazol-5(4H)-one]
< 100 nM | C=CC(C)COc1cccc([C@@]2(c3ccc(OC(F)F)cc3)N=C(N)N(C)C2=O)c1 (stereo partly drawn) [Example 10F, (4R)-2-amino-4-(4-(difluoromethoxy)phenyl)-1-methyl-4-(3-(2-methylbut-3-enyloxy)phenyl)-1H-imidazol-5(4H)-one]
< 100 nM | C=C(C)CCOc1cccc([C@@]2(c3ccc(OC(F)F)cc3)N=C(N)N(C)C2=O)c1 [Example 10G, (R)-2-amino-4-(4-(difluoromethoxy)phenyl)-1-methyl-4-(3-(3-methylbut-3-enyloxy)phenyl)-1H-imidazol-5(4H)-one]
< 100 nM | C=CCOc1cccc([C@@]2(c3ccc(OC(F)F)cc3)N=C(N)N(C)C2=O)c1 [Example 10H, (R)-4-(3-(allyloxy)phenyl)-2-amino-4-(4-(difluoromethoxy)phenyl)-1-methyl-1H-imidazol-5(4H)-one]
< 100 nM | CN1C(=O)[C@@](c2ccc(OC(F)F)cc2)(c2cccc(CCCCC#N)c2)N=C1N [Example 11A, 5-(3-{(4R)-2-amino-4-[4-(difluoromethoxy)phenyl]-1-methyl-5-oxo-4,5-dihydro-1H-imidazol-4-yl}phenyl)pentanenitrile]
> 1000 nM | CN1C(=O)[C@](c2ccc(OC(F)F)cc2)(c2cccc(CCCCC#N)c2)N=C1N [Example 11B, 5-(3-{(4S)-2-amino-4-[4-(difluoromethoxy)phenyl]-1-methyl-5-oxo-4,5-dihydro-1H-imidazol-4-yl}phenyl)pentanenitrile]
< 100 nM | CN1C(=O)C(c2ccc(OC(F)F)cc2)(c2cccc(C#CCCCF)c2)N=C1N (centres unmarked) [Example 19D, 2-amino-5-[4-(difluoromethoxy)phenyl]-5-[3-(5-fluoropent-1-yn-1-yl)phenyl]-3-methyl-3,5-dihydro-4H-imidazol-4-one]
< 100 nM | CN1C(=O)[C@@](c2ccc(OC(F)F)cc2)(c2cccc(C#CCCCF)c2)N=C1N [Example 19E, (5R)-2-amino-5-[4-(difluoromethoxy)phenyl]-5-[3-(5-fluoropent-1-yn-1-yl)phenyl]-3-methyl-3,5-dihydro-4H-imidazol-4-one]
> 1000 nM | CN1C(=O)[C@](c2ccc(OC(F)F)cc2)(c2cccc(C#CCCCF)c2)N=C1N [Example 19F, (5S)-2-amino-5-[4-(difluoromethoxy)phenyl]-5-[3-(5-fluoropent-1-yn-1-yl)phenyl]-3-methyl-3,5-dihydro-4H-imidazol-4-one]
< 100 nM | CN1C(=O)C(c2ccc(OC(F)F)cc2)(c2ccc(F)c(C#CCCCCl)c2)N=C1N (centres unmarked) [Example 20A, 2-amino-5-[3-(5-chloropent-1-yn-1-yl)-4-fluorophenyl]-5-[4-(difluoromethoxy)phenyl]-3-methyl-3,5-dihydro-4H-imidazol-4-one]
< 100 nM | CN1C(=O)C(c2ccc(OC(F)F)cc2)(c2cccc(C#CCCCCl)c2)N=C1N (centres unmarked) [Example 20B, 2-amino-5-[3-(5-chloropent-1-yn-1-yl)-phenyl]-5-[4-(difluoromethoxy)phenyl]-3-methyl-3,5-dihydro-4H-imidazol-4-one]
110 to 1000 nM | CCC(=O)Nc1cccc(C2(c3ccc(OC(F)F)cc3)N=C(N)N(C)C2=O)c1 (centres unmarked) [Example 21]

IC50 | SMILES
110 to 1000 nM | CCCC(=O)Nc1cccc(C2(c3ccc(OC(F)F)cc3)N=C(N)N(C)C2=O)c1 (centres unmarked) [Example 22]
110 to 1000 nM | CCCCC(=O)Nc1cccc(C2(c3ccc(OC(F)F)cc3)N=C(N)N(C)C2=O)c1 (centres unmarked) [Example 23]
110 to 1000 nM | CN1C(=O)C(c2ccc(OC(F)F)cc2)(c2cccc(NC(=O)CCCl)c2)N=C1N (centres unmarked) [Example 24]
< 100 nM | CN1C(=O)C(c2ccc(OC(F)F)cc2)(c2cccc(NC(=O)C(F)(F)F)c2)N=C1N (centres unmarked) [Example 25]
< 100 nM | CC(C)CC(=O)Nc1cccc(C2(c3ccc(OC(F)F)cc3)N=C(N)N(C)C2=O)c1 (centres unmarked) [Example 26]
110 to 1000 nM | CC(C)C(=O)Nc1cccc(C2(c3ccc(OC(F)F)cc3)N=C(N)N(C)C2=O)c1 (centres unmarked) [Example 27]
110 to 1000 nM | CN1C(=O)C(c2ccc(OC(F)F)cc2)(c2cccc(NC(=O)C3CC3)c2)N=C1N (centres unmarked) [Example 28]
110 to 1000 nM | CN1C(=O)C(c2ccc(OC(F)F)cc2)(c2cccc(NC(=O)C3CCC3)c2)N=C1N (centres unmarked) [Example 29]
110 to 1000 nM | CC=CC(=O)Nc1cccc(C2(c3ccc(OC(F)F)cc3)N=C(N)N(C)C2=O)c1 (centres unmarked) [Example 30]
> 1000 nM | CC(C)=CC(=O)Nc1cccc(C2(c3ccc(OC(F)F)cc3)N=C(N)N(C)C2=O)c1 (centres unmarked) [Example 31]
110 to 1000 nM | CN1C(=O)C(c2ccc(OC(F)F)cc2)(c2cccc(NC(=O)C=Cc3ccccc3)c2)N=C1N (centres unmarked) [Example 32]
< 100 nM | CN1C(=O)C(c2ccc(OC(F)F)cc2)(c2cccc(NC(=O)c3ccco3)c2)N=C1N (centres unmarked) [Example 33]
110 to 1000 nM | CN1C(=O)C(c2ccc(OC(F)F)cc2)(c2cccc(NC(=O)COCc3ccccc3)c2)N=C1N (centres unmarked) [Example 34]
110 to 1000 nM | CN1C(=O)C(c2ccc(OC(F)F)cc2)(c2cccc(NC(=O)c3ccccc3)c2)N=C1N (centres unmarked) [Example 35]
< 100 nM | CN1C(=O)C(c2ccc(OC(F)F)cc2)(c2cccc(NC(=O)C(Cl)(Cl)Cl)c2)N=C1N (centres unmarked) [Example 36]
< 100 nM | CN1C(=O)C(c2ccc(OC(F)F)cc2)(c2cccc(NC(=O)c3sccc3Br)c2)N=C1N (centres unmarked) [Example 39]
< 100 nM | CN1C(=O)C(c2ccc(OC(F)F)cc2)(c2cccc(NC(=O)c3coc4ccccc34)c2)N=C1N (centres unmarked) [Example 40]
